From patent publication US12350270B2, “Antimalarial agents” (Merck Sharp & Dohme LLC, priority 2019, dated 2025)

What follows are molecules tested on parasites (ring stage, in human red blood cell culture) (assay: Parasite LDH growth assay (antiparasite potency, Parasite Assay)). Details: 0.7% rings, 2% haematocrit, 72 hours at 37° C., LDH readout of parasite growth.
Format: cell-based, Plasmodium falciparum
Outline: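 Ring-stage parasites at 0.7% parasitemia and 2% haematocrit, in RPMI-Hepes/bicarbonate with 5% heat-inactivated human serum and 0.5% albumax, were added to compound-containing medium. Cultures grew 72 h at 37 °C in gassed humidified boxes. Plates were then frozen overnight at −80 °C, thawed 4 h, and growth was measured by LDH assay.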
`CC(C)[C@]1(C)CC(=O)N([C@@H]2CC(C)(C)Oc3ccc(C(=O)N[C@@H]4c5ccccc5OC[C@H]4O)cc32)C(=N)N1` [Example 40A, (R)-N-((3S,4R)-3-hydroxychroman-4-yl)-4-((S)-2-imino-4-isopropyl-4-methyl-6-oxotetrahydropyrimidin-1(2H)-yl)-2,2-dimethylchromane-6-carboxamide] gave an EC50 of 69.5 nM. Work on `CC(C)[C@]1(C)CC(=O)N([C@@H]2CC(C)(C)Oc3ccc(C(=O)N[C@@H]4c5ccccc5OC[C@H]4O)cc32)C(=N)N1` [Example 45A, (R)-N-((3S,4R)-3-hydroxychroman-4-yl)-4-((S)-2-imino-4-isopropyl-4-methyl-6-oxotetrahydropyrimidin-1(2H)-yl)-2,2-dimethylchromane-6-carboxamide] yielded an EC50 of 2.6 nM. With `CCC1(CC)CC(=O)N([C@@H]2CC(C)(C)Oc3ccc(C(=O)N[C@@H]4c5cc(F)ccc5OC(C)(C)[C@H]4O)cc32)C(=N)N1` [Example 46A, (R)-4-(4,4-diethyl-2-imino-6-oxotetrahydropyrimidin-1(2H)-yl)-N-((3S,4R)-6-fluoro-3-hydroxy-2,2-dimethylchroman-4-yl)-2,2-dimethylchromane-6-carboxamide] the EC50 was 130 nM. With `CCC1(CC)CC(=O)N([C@@H]2CC(C)(C)Oc3ccc(C(=O)N[C@@H]4c5cc(F)ccc5OC(C)(C)[C@H]4O)cc32)C(=N)N1` [Example 53A, (R)-4-(4,4-diethyl-2-imino-6-oxotetrahydropyrimidin-1(2H)-yl)-N-((3S,4R)-6-fluoro-3-hydroxy-2,2-dimethylchroman-4-yl)-2,2-dimethylchromane-6-carboxamide] the EC50 was 0.3 nM. `CC1(C)CC(=O)N([C@@H]2CC(C)(C)Oc3ccc(C(=O)N[C@@H]4c5ccccc5OC[C@H]4O)cc32)C(=N)N1` [Example 56A, (R)-N-((3S,4R)-3-hydroxychroman-4-yl)-4-(2-imino-4,4-dimethyl-6-oxotetrahydropyrimidin-1(2H)-yl)-2,2-dimethylchromane-6-carboxamide] showed an EC50 of 26.9 nM. `CCC1(CC)C[C@@H](N2C(=N)NC(C)(C)CC2=O)c2cc(C(=O)N[C@@H]3c4ccccc4OC[C@H]3O)ccc2O1` [Example 57A, (R)-2,2-diethyl-N-((3S,4R)-3-hydroxychroman-4-yl)-4-(2-imino-4,4-dimethyl-6-oxotetrahydropyrimidin-1(2H)-yl)chromane-6-carboxamide] showed an EC50 of 18.3 nM.

Same assay, conditions: Plasmodium falciparum, Erythrocyte, 72 h, 0.7% rings, 2% haematocrit, 72 hours at 37° C., LDH readout of parasite growth
Molecule `CCC1(CC)CC(=O)N([C@@H]2CC(C)(C)Oc3ccc(C(=O)N[C@H]4CCOc5ccccc54)cc32)C(=N)N1` [Example 33A, (R)-N-((S)-chroman-4-yl)-4-(4,4-diethyl-2-imino-6-oxotetrahydropyrimidin-1(2H)-yl)-2,2-dimethylchromane-6-carboxamide] has an EC50 of 28.3 nM. With `CCC1(CC)CC(=O)N([C@@H]2CC(C)(C)Oc3ccc(C(=O)N[C@@H]4c5ccccc5OC(C)(C)[C@H]4O)cc32)C(=N)N1` [Example 34A, (R)-4-(4,4-diethyl-2-imino-6-oxotetrahydropyrimidin-1(2H)-yl)-N-((3S,4R)-3-hydroxy-2,2-dimethylchroman-4-yl)-2,2-dimethylchromane-6-carboxamide] the EC50 was 1.2 nM. Work on `CCC1(CC)CC(=O)N([C@@H]2CC(C)(C)Oc3ccc(C(=O)N[C@@H]4c5ccccc5C[C@H]4O)cc32)C(=N)N1` [Example 35A, (R)-4-(4,4-diethyl-2-imino-6-oxotetrahydropyrimidin-1(2H)-yl)-N-((lR,2R)-2-hydroxy-2,3-dihydro-1H-inden-1-yl)-2,2-dimethylchromane-6-carboxamide] yielded an EC50 of 2.4 nM. `CCC1(CC)CC(=O)N([C@@H]2CC(C)(C)Oc3ccc(C(=O)N[C@@H]4c5ccccc5OC[C@@H]4O)cc32)C(=N)N1` [Example 36A, (R)-4-(4,4-diethyl-2-imino-6-oxotetrahydropyrimidin-1(2H)-yl)-N-((3R,4R)-3-hydroxychroman-4-yl)-2,2-dimethylchromane-6-carboxamide] showed an EC50 of 8.9 nM. Work on `CCC1(CC)CC(=O)N([C@@H]2CC(C)(C)Oc3ccc(C(=O)N[C@@H]4c5ccccc5OC[C@H]4O)cc32)C(=N)N1` [Example 36B, (R)-4-(4,4-diethyl-2-imino-6-oxotetrahydropyrimidin-1(2H)-yl)-N-((3 S,4R)-3-hydroxychroman-4-yl)-2,2-dimethylchromane-6-carboxamide] yielded an EC50 of 2.2 nM. For `CC(C)[C@]1(C)CC(=O)N([C@@H]2CC(C)(C)Oc3ccc(C(=O)N[C@H]4CCOc5ccccc54)cc32)C(=N)N1` [Example 37A, (R)-N-((S)-chroman-4-yl)-4-((S)-2-imino-4-isopropyl-4-methyl-6-oxotetrahydropyrimidin-1(2H)-yl)-2,2-dimethylchromane-6-carboxamide], the EC50 was 74.4 nM. For `CC(C)[C@]1(C)CC(=O)N([C@@H]2CC(C)(C)Oc3ccc(C(=O)N[C@@H]4c5ccccc5OC(C)(C)[C@H]4O)cc32)C(=N)N1` [Example 38A, (R)-N-((3 S,4R)-3-hydroxy-2,2-dimethylchroman-4-yl)-4-((S)-2-imino-4-isopropyl-4-methyl-6-oxotetrahydropyrimidin-1(2H)-yl)-2,2-dimethylchromane-6-carboxamide], the EC50 was 2.8 nM. `CC(C)[C@]1(C)CC(=O)N([C@@H]2CC(C)(C)Oc3ccc(C(=O)N[C@@H]4c5ccccc5C[C@H]4O)cc32)C(=N)N1` [Example 39A, (R)-N-((1R,2R)-2-hydroxy-2,3-dihydro-1H-inden-l-yl)-4-((S)-2-imino-4-isopropyl-4-methyl-6-oxotetrahydropyrimidin-1(2H)-yl)-2,2-dimethylchromane-6-carboxamide] gave an EC50 of 29.9 nM. With `CC(C)[C@]1(C)CC(=O)N([C@@H]2CC(C)(C)Oc3ccc(C(=O)N[C@@H]4c5cc(F)ccc5OC(C)(C)[C@H]4O)cc32)C(=N)N1` [Example 41A, (R)-N-((3 S,4R)-6-fluoro-3-hydroxy-2,2-dimethylchroman-4-yl)-4-((S)-2-imino-4-isopropyl-4-methyl-6-oxotetrahydropyrimidin-1(2H)-yl)-2,2-dimethylchromane-6-carboxamide] the EC50 was 2.8 nM. With `CC1(C)CC(=O)N([C@@H]2CC(C)(C)Oc3ccc(C(=O)N[C@@H]4c5ccccc5OC(C)(C)[C@H]4O)cc32)C(=N)N1` [Example 47A, (R)-N-((3S,4R)-3-hydroxy-2,2-dimethylchroman-4-yl)-4-(2-imino-4,4-dimethyl-6-oxotetrahydropyrimidin-1(2H)-yl)-2,2-dimethylchromane-6-carboxamide] the EC50 was 4.7 nM. Molecule `CC1(C)CC(=O)N([C@@H]2CC(C)(C)Oc3ccc(C(=O)N[C@@H]4c5ccccc5C[C@H]4O)cc32)C(=N)N1` [Example 48A, (R)-N-((lR,2R)-2-hydroxy-2,3-dihydro-1H-inden-l-yl)-4-(2-imino-4,4-dimethyl-6-oxotetrahydropyrimidin-1(2H)-yl)-2,2-dimethylchromane-6-carboxamide] has an EC50 of 37.5 nM. `CC1(C)CC(=O)N([C@@H]2CC(C)(C)Oc3ccc(C(=O)N[C@@H]4c5ccccc5OC[C@H]4O)cc32)C(=N)N1` [Example 49A, (R)-N-((3S,4R)-3-hydroxychroman-4-yl)-4-(2-imino-4,4-dimethyl-6-oxotetrahydropyrimidin-1(2H)-yl)-2,2-dimethylchromane-6-carboxamide] was tested, and the EC50 was 49 nM. `CCC1(CC)C[C@@H](N2C(=N)NC(C)(C)CC2=O)c2cc(C(=O)N[C@@H]3c4ccccc4OC(C)(C)[C@H]3O)ccc2O1` [Example 50A, (R)-2,2-diethyl-N-((3S,4R)-3-hydroxy-2,2-dimethylchroman-4-yl)-4-(2-imino-4,4-dimethyl-6-oxotetrahydropyrimidin-1(2H)-yl)chromane-6-carboxamide] gave an EC50 of 3.7 nM. `CCC1(CC)C[C@@H](N2C(=N)NC(C)(C)CC2=O)c2cc(C(=O)N[C@@H]3c4ccccc4C[C@H]3O)ccc2O1` [Example 51A, (R)-2,2-diethyl-N-((1R,2R)-2-hydroxy-2,3-dihydro-1H-inden-l-yl)-4-(2-imino-4,4-dimethyl-6-oxotetrahydropyrimidin-1(2H)-yl)chromane-6-carboxamide] gave an EC50 of 22.5 nM. `CCC1(CC)C[C@@H](N2C(=N)NC(C)(C)CC2=O)c2cc(C(=O)N[C@@H]3c4ccccc4OC[C@H]3O)ccc2O1` [Example 52A, (R)-2,2-diethyl-N-((3S,4R)-3-hydroxychroman-4-yl)-4-(2-imino-4,4-dimethyl-6-oxotetrahydropyrimidin-1(2H)-yl)chromane-6-carboxamide] gave an EC50 of 14.4 nM. `CC1(C)CC(=O)N([C@@H]2CC(C)(C)Oc3ccc(C(=O)N[C@H]4c5cc(F)ccc5OC(C)(C)[C@@H]4O)cc32)C(=N)N1` [Example 58A, (R)-N-((3R,4S)-6-fluoro-3-hydroxy-2,2-dimethylchroman-4-yl)-4-(2-imino-4,4-dimethyl-6-oxotetrahydropyrimidin-1(2H)-yl)-2,2-dimethylchromane-6-carboxamide] gave an EC50 of 250 nM. For `CC1(C)CC(=O)N([C@@H]2CC(C)(C)Oc3ccc(C(=O)N[C@@H]4c5cc(F)ccc5OC(C)(C)[C@H]4O)cc32)C(=N)N1` [Example 58B, (R)-N-((3S,4R)-6-fluoro-3-hydroxy-2,2-dimethylchroman-4-yl)-4-(2-imino-4,4-dimethyl-6-oxotetrahydropyrimidin-1(2H)-yl)-2,2-dimethylchromane-6-carboxamide], the EC50 was 3.8 nM. `CCC1(CC)C[C@@H](N2C(=N)NC(C)(C)CC2=O)c2cc(C(=O)N[C@H]3c4cc(F)ccc4OC(C)(C)[C@@H]3O)ccc2O1` [Example 59A, (R)-2,2-diethyl-N-((3R,4S)-6-fluoro-3-hydroxy-2,2-dimethylchroman-4-yl)-4-(2-imino-4,4-dimethyl-6-oxotetrahydropyrimidin-yl)chromane-6-carboxamide] gave an EC50 of 210 nM. `CCC1(CC)C[C@@H](N2C(=N)NC(C)(C)CC2=O)c2cc(C(=O)N[C@@H]3c4cc(F)ccc4OC(C)(C)[C@H]3O)ccc2O1` [Example 59B, (R)-2,2-diethyl-N-((3S,4R)-6-fluoro-3-hydroxy-2,2-dimethylchroman-4-yl)-4-(2-imino-4,4-dimethyl-6-oxotetrahydropyrimidin-1(2H)-yl)chromane-6-carboxamide] was tested, and the EC50 was 1.6 nM.
